Columns and labels:
[1] = biological target: Ribosomal protein S6 kinase alpha-4 (Homo sapiens) (UniProt O75676); assay: Selectivity interaction (KinomeScan (DiscoverX)) EUB0000666a RPS6KA4; settings: at 10 µM
[2] = biological target: T1, Serine/threonine-protein kinase Nek3 (Homo sapiens) (UniProt P51956); assay: Selectivity interaction (KinomeScan (DiscoverX)) EUB0000045b NEK3
T1 sequence (whole entry): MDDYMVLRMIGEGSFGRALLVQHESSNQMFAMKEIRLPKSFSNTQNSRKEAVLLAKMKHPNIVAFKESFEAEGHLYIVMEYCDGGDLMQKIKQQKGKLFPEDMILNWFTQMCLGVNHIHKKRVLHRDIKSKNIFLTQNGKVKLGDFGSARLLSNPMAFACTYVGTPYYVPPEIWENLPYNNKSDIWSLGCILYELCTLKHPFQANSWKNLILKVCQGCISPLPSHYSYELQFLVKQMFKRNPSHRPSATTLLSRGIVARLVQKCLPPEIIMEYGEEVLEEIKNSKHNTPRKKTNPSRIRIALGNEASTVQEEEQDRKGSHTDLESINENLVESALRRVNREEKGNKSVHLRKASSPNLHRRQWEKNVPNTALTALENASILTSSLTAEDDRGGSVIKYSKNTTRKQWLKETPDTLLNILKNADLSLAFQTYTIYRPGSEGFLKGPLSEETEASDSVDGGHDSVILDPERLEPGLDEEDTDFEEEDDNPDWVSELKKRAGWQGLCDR

[3] = biological target: T2, Mitogen-activated protein kinase 13 (Homo sapiens) (UniProt O15264); assay: Selectivity interaction (KinomeScan (DiscoverX)) EUB0000695a MAPK13; settings: at 100 nM
T2 sequence (whole entry): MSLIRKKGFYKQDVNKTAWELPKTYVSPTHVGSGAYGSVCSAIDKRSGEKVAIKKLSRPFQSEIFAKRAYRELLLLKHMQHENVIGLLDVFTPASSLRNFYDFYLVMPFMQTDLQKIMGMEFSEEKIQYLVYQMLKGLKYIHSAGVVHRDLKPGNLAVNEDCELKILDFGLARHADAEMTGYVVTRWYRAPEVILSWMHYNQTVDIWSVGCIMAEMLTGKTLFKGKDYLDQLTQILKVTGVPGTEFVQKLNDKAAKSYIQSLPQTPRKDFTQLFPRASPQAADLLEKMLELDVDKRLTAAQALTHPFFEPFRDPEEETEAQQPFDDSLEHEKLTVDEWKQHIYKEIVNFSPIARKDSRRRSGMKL

[4] = biological target: Ephrin type-A receptor 7 (Homo sapiens) (UniProt Q15375); assay: Selectivity interaction (KinomeScan (DiscoverX)) EUB0000607a EPHA7; settings: at 10 µM
[5] = biological target: T3, Dual serine/threonine and tyrosine protein kinase (Homo sapiens) (UniProt Q6XUX3); assay: Selectivity interaction (KinomeScan (DiscoverX)) EUB0000607a DSTYK; settings: at 10 µM
T3 sequence (whole entry): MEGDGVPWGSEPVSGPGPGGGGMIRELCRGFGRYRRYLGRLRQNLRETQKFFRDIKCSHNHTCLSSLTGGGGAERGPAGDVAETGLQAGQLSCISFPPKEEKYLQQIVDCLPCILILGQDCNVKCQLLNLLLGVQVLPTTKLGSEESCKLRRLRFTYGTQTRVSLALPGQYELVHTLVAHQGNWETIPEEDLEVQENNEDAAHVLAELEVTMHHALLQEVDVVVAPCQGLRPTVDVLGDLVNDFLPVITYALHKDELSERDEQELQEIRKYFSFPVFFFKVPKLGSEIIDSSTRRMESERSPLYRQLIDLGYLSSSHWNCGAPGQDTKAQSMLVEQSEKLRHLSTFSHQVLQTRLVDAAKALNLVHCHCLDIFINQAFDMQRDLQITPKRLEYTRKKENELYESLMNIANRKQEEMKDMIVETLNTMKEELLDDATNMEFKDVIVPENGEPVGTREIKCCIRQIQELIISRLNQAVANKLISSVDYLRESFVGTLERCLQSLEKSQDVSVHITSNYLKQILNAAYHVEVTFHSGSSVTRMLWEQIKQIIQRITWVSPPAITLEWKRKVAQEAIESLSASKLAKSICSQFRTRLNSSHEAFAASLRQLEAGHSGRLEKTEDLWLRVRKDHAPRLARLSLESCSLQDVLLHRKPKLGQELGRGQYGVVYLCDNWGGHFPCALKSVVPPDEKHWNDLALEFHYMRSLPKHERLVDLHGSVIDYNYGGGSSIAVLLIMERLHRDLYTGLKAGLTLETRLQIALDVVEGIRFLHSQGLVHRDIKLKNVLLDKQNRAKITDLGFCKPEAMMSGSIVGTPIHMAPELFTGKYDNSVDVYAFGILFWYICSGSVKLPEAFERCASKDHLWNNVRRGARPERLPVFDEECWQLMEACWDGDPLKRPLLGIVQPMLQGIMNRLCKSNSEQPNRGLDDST

Chain of Ephrin type-A receptor 7 (Homo sapiens) (Q15375 28-998 limits assumed): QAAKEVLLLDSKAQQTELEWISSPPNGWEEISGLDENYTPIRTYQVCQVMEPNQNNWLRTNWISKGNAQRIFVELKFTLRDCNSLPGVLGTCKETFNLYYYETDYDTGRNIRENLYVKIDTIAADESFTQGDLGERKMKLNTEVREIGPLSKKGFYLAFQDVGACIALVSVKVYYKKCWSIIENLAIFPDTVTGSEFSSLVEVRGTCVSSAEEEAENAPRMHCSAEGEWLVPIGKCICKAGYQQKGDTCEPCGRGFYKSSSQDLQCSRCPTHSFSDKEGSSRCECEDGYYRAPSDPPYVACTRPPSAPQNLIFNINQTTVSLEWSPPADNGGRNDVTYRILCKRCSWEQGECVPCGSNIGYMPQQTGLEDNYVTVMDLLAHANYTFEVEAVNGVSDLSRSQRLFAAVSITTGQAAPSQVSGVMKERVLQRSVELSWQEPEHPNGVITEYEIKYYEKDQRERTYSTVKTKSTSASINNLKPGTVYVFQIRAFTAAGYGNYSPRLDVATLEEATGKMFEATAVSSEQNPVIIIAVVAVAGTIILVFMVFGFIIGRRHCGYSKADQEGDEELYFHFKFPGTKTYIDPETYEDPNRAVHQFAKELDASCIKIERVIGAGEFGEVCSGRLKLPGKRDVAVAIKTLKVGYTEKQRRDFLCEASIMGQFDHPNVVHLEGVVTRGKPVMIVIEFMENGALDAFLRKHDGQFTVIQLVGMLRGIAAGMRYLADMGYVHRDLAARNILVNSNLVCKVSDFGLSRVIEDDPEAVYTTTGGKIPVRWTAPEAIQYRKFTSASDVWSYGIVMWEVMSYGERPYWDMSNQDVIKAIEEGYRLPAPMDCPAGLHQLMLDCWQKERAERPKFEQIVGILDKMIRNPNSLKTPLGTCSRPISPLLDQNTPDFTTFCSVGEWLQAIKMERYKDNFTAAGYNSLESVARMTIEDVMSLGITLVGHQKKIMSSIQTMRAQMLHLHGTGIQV
Chain of Ribosomal protein S6 kinase alpha-4 (Homo sapiens) (O75676 whole entry, looked up): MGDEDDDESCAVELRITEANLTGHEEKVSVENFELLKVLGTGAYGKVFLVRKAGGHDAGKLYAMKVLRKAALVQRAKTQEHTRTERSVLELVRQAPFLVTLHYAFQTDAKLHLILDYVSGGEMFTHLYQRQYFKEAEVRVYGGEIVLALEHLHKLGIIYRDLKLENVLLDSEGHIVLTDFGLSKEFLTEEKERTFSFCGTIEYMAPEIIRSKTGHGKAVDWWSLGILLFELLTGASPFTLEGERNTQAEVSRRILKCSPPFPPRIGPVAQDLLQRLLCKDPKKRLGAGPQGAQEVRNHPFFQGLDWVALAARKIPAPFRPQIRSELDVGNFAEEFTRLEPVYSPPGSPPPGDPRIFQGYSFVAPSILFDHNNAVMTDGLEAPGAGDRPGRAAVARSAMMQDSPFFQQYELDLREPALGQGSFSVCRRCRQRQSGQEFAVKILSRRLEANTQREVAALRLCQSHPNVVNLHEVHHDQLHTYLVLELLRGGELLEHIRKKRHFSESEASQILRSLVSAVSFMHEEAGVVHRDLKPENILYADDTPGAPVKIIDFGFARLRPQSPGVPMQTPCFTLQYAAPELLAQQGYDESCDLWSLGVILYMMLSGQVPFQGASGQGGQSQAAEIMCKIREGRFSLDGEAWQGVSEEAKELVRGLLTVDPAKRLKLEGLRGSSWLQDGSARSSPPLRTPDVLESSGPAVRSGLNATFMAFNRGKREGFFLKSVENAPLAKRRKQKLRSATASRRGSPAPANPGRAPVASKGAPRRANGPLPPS

For `O=C(NOC[C@H](O)CO)c1ccc(F)c(F)c1Nc1ccc(I)cc1F`, which % of control [1] is on record?
The % of control was 86%.

What does the source list for `C=CC(=O)Nc1cc(-n2c(=O)ccc3cnc4ccc(-c5ccc(NS(C)(=O)=O)cc5)cc4c32)ccc1C`?
% of control ([2]; at 1 µM): 98%; % of control ([2]; at 10 µM): 100%

With `Cc1cc(F)c(C(=O)Nc2cccc(-c3nncn3C(C)C)n2)cc1-n1cnc(C2CC2)c1` as the molecule, how does the % of control [3] read?
The % of control was 100%.

For `CNC(=O)Nc1ccc(-c2nc(N3CC4CCC(C3)O4)c3cnn(C4CCC5(CC4)OCCO5)c3n2)cc1`, which % of control [4] is on record?
Its % of control is 87%.

What about the % of control [5] of the same molecule?
Its % of control is 100%.

— ChEMBL document CHEMBL5465560, “Selectivity Literature for EUbOPEN Chemogenomic Library” (2024)
